The results in this text go back to patent US9382197B2, “Substituted hydroxamic acids and uses thereof” (Millennium Pharmaceuticals, Inc., priority 2010, dated 2016).

The target of the first assay is T1, purified human HDAC6 (Homo sapiens, UniProt Q9UBN7).
T1 construct: purchased BPS Bioscience 5006
T1 sequence (Q9UBN7 1-1215): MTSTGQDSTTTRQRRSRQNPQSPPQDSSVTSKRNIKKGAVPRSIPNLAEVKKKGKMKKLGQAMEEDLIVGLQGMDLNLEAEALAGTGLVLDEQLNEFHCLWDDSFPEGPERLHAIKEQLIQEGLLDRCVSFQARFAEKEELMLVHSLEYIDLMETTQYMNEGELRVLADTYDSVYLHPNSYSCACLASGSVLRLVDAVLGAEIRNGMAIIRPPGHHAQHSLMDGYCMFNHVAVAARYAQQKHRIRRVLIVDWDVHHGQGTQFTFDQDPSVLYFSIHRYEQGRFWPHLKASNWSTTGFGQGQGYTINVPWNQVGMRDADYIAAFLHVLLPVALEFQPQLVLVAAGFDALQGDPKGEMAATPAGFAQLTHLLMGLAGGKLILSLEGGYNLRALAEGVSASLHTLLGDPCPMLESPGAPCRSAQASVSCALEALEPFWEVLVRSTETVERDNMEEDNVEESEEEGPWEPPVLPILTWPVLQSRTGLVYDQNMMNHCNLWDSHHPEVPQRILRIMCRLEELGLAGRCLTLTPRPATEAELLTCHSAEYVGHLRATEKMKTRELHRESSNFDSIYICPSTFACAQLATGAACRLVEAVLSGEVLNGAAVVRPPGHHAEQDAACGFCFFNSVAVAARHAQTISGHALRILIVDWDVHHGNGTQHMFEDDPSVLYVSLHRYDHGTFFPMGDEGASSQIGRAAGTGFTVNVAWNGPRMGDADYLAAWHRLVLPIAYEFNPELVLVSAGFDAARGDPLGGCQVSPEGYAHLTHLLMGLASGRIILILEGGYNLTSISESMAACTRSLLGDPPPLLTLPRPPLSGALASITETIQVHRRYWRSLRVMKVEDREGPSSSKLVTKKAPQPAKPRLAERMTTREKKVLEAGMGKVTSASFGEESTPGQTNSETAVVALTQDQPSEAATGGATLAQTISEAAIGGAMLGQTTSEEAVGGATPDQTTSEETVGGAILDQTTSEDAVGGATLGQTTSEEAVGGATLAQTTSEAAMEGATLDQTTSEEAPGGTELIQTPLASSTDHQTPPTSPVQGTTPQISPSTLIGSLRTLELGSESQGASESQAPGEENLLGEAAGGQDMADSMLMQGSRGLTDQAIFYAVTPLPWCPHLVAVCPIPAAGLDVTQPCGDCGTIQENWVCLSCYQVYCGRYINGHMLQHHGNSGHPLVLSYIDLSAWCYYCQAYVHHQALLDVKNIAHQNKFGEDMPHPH
The assay can be described thus: HDAC6 Enzyme Assay. The class given is biochemical. The conditions noted are these: bin: greater than 500 nM and less than 1 μM (lower bound in nM, upper bound in μM). The gist of the method: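 Deacetylated product quantified after trypsin digestion as released AMC (340/460 nm), following a 1 h, 30 °C reaction of human HDAC6 with Ac-RGK(Ac)-AMC peptide, quenched by trichostatin A. IC50 derived from DMSO-normalized curves.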
As for `CC(NC(=O)NC(C)(C)C)c1ccc(C(=O)NO)cc1` (stereo not shown) [Compound I-339, 4-(1-{[(tert-butylamino)carbonyl]amino}ethyl)-N-hydroxybenzamide], the IC50 (in general, the concentration that gives 50% inhibition) was 500 to 1000 nM. The same measure, in the same setting: then `C[C@@H](NS(=O)(=O)c1ccc(C(F)(F)F)cc1)c1ccc(C(=O)NO)cc1` [Compound I-351, N-hydroxy-4-[(1R)-1-({[4-(trifluoromethyl)phenyl]sulfonyl}amino)ethyl]benzamide], with 500 to 1000 nM.

Staying with this assay, now noted: bin: greater than 1 μM.
Turning to `Cn1c(C(=O)NC(c2ccc(C(=O)NO)cc2)C(C)(C)C)cc2oc(-c3ccc(C(C)(C)C)cc3)cc21` (stereo not shown) [Compound I-337, 2-(4-tert-butylphenyl)-N-(1-{4-[(hydroxyamino)carbonyl]phenyl}-2,2-dimethylpropyl)-4-methyl-4H-furo[3,2-b]pyrrole-5-carboxamide], the IC50 is greater than 1000 nM.

As for `C[C@@H](NC(=O)NC12CC3CC(CC(C3)C1)C2)c1cccc(C(=O)NO)c1` [Compound I-343, 3-[(1R)-1-({[1-adamantylamino]carbonyl}amino)ethyl]-N-hydroxybenzamide], the IC50 was greater than 1000 nM. Same read-out and setting: the same measure for `CC(C)(C)C(NC(=O)Cc1csc2ccc(Cl)cc12)c1ccc(C(=O)NO)cc1` (stereo not shown) [Compound I-345, 4-(1-{[(5-chloro-1-benzothien-3-yl)acetyl]amino}-2,2-dimethylpropyl)-N-hydroxybenzamide]: greater than 1000 nM.

Staying with this assay, now noted: purified human HDAC6, substrate Ac-Arg-Gly-Lys(Ac)-AMC, 1 hour at 30° C.; reported as bins.
`CC(NS(=O)(=O)Cc1ccccc1)c1ccc(C(=O)NO)cc1` (stereo not shown) [Compound I-338, 4-{1-[(benzylsulfonyl)amino]ethyl}-N-hydroxybenzamide] returned an IC50 of 100 to 500 nM.

With `CC(C)[C@@H](NC(=O)c1ccc(-c2ccccc2)cc1)c1ccc(C(=O)NO)cc1` [Compound I-341, N-((1R)-1-{4-[(hydroxyamino)carbonyl]phenyl}-2-methylpropyl)biphenyl-4-carboxamide], the IC50 was less than 100 nM. Still for that read-out and setting: the same measure for `Cc1ccc2[nH]c(C(=O)NC(C)c3cccc(C(=O)NO)c3)cc2c1` (stereo not shown) [Compound I-342, N-(1-{3-[(hydroxyamino)carbonyl]phenyl}ethyl)-5-methyl-1H-indole-2-carboxamide]: 100 to 500 nM; for `CC(C)C(NC(=O)C1CCCCC1)c1ccc(C(=O)NO)cc1` (stereo not shown) [Compound I-344, 4-{1-[(cyclohexylcarbonyl)amino]-2-methylpropyl}-N-hydroxybenzamide]: 100 to 500 nM; for `COc1ccc(C(=O)NC(c2ccc(C(=O)NO)cc2)C(C)C)cc1` (stereo not shown) [Compound I-346, N-(1-{4-[(hydroxyamino)carbonyl]phenyl}-2-methylpropyl)-4-methoxybenzamide]: less than 100 nM. Compound `CC(NC(=O)C1CC=CCC1)c1ccc(C(=O)NO)cc1` (stereo not shown) [Compound I-348, 4-{1-[(cyclohex-3-en-1-ylcarbonyl)amino]ethyl}-N-hydroxybenzamide] came in with an IC50 of less than 100 nM. Still for that read-out and setting: then `CC(NC(=O)c1ccc2occc2c1)c1ccc(C(=O)NO)cc1` (stereo not shown) [Compound I-349, N-(1-{4-[(hydroxyamino)carbonyl]phenyl}ethyl)-1-benzofuran-5-carboxamide], with less than 100 nM; and `CC(NC(=O)c1ccc(C(C)(C)C)cc1)c1ccc(C(=O)NO)cc1` (stereo not shown) [Compound I-350, 4-tert-butyl-N-(1-{4-[(hydroxyamino)carbonyl]phenyl}ethyl)benzamide], with less than 100 nM. Same read-out and setting: then `COc1ccc(C(=O)NC(c2ccc(C(=O)NO)cc2)C(C)(C)C)cc1` (stereo not shown) [Compound I-352, N-(1-{4-[(hydroxyamino)carbonyl]phenyl}-2,2-dimethylpropyl)-4-methoxybenzamide], with 100 to 500 nM; and `CC(NC(=O)c1cn(C)c2ccccc12)c1cccc(C(=O)NO)c1` (stereo not shown) [Compound I-353, N-(1-{3-[(hydroxyamino)carbonyl]phenyl}ethyl)-1-methyl-1H-indole-3-carboxamide], with 100 to 500 nM. The same measure, in the same setting: the same measure for `CC(C)[C@@H](NC(=O)NC12CC3CC(CC(C3)C1)C2)c1ccc(C(=O)NO)cc1` [Compound I-354, 4-[(1R)-1-({[1-adamantylamino]carbonyl}amino)-2-methylpropyl]-N-hydroxybenzamide]: less than 100 nM.
